Measurements: EP4667483A1, “HUMAN TRANSFERRIN RECEPTOR-BINDING PEPTIDE” (JCR Pharmaceuticals Co., Ltd., priority 2023, dated 2024)
Bridge positions count the residues as written; N and C are the ends. Square brackets hold non-standard residues; d marks the D form. Peptide text beside a SMILES is read from it. * marks the point of attachment. Ala(imidazo(1,2-a)pyr3yl) = N[C@@H](Cc1cnc2ccccn12)C(=O)O; CH2CON(CH2CH2)2NCH2COOH = O=C(O)CN1CCN(C(=O)C*)CC1; Nle(6-morpholino) = N[C@@H](CCCCN1CCOCC1)C(=O)O; Phe(3-COOH) = N[C@@H](Cc1cccc(C(=O)O)c1)C(=O)O; Trp(7-aza) = N[C@@H](Cc1c[nH]c2ncccc12)C(=O)O; NH(CH2CH2O)8Me = COCCOCCOCCOCCOCCOCCOCCOCCN*; NMePhe(3-Cl) = CN[C@@H](Cc1cccc(Cl)c1)C(=O)O; 3Pal(6-NH2) = Nc1ccc(C[C@H](N)C(=O)O)cn1; NMeW = CN[C@@H](Cc1c[nH]c2ccccc12)C(=O)O; Lys(N3) = [N-]=[N+]=NCCCC[C@H](N)C(=O)O; NMeY = CN[C@@H](Cc1ccc(O)cc1)C(=O)O; Nva(3-Et) = CCC(CC)[C@H](N)C(=O)O; NMeF = CN[C@@H](Cc1ccccc1)C(=O)O; 4Pal = N[C@@H](Cc1ccncc1)C(=O)O; PEG4 = NCCOCCOCCOCCOCCC(=O)O; Carboxymethyl = O=C(O)C*

How the values were obtained:
[1] = molecular target: T1, human transferrin receptor (hTfR) (Homo sapiens, UniProt P02786); assay: SPR measurement under pH 7.4 conditions (Biacore T200, CM3 chip, hTfR captured by His Tag antibody); type: binding; settings: read-out: hTfR SPR pH7.4 KD
[2] = molecular target: T1, human transferrin receptor (hTfR); assay: SPR measurement under pH 6.0 conditions (Biacore T200, NTA chip, immobilized hTfR); type: binding; settings: read-out: hTfR SPR pH6.0 KD
[3] = SPR, pH 7.4, peptide with the linker named in the table
[4] = SPR, pH 6.0, peptide with the linker named in the table

T1 sequence (P02786 whole entry): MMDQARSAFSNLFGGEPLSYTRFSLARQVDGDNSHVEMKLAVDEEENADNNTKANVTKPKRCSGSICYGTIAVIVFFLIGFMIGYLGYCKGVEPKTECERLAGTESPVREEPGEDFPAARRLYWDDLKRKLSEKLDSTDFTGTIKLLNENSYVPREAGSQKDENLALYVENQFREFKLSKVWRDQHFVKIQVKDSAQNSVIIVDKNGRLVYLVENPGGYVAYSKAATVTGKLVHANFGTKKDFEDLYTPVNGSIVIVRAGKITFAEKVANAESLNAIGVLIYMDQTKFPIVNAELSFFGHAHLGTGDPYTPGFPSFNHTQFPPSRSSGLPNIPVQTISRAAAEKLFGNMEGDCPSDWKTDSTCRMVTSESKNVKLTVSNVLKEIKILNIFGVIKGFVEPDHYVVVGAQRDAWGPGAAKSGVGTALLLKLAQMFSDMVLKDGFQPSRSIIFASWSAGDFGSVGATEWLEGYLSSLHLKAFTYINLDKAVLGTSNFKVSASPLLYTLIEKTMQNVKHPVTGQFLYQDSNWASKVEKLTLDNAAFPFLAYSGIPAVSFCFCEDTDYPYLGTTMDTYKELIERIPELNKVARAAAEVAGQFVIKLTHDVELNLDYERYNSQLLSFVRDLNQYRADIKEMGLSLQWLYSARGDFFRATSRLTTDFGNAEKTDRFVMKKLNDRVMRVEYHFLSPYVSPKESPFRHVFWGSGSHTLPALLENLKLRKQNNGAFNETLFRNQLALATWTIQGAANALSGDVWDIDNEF

Row | SMILES | Kd ([1]; pH 7.4, single-cycle kinetics) [nM] | Kd ([2]; pH 6.0, single-cycle kinetics) [nM] | Kd [1, 3] [nM] | Kd [2, 4] [nM] | further results
1 | CC[C@H](C)[C@@H]1NC(=O)[C@H](Cc2ccc(OC)cc2)NC(=O)[C@H](Cc2ccc(N)nc2)NC(=O)[C@H](CC(N)=O)NC(=O)[C@H](Cc2cnc3ccccn23)NC(=O)[C@H](C(C)C)NC(=O)[C@H](Cc2cccc(Cl)c2)N(C)C(=O)[C@H](C(C)C)NC(=O)[C@H](C)NC(=O)CSC[C@@H](C(=O)NCC(=O)N[C@@H](CCCCN=[N+]=[N-])C(N)=O)NC(=O)[C@H](Cc2ccc(O)cc2)N(C)C(=O)[C@H](Cc2ccncc2)NC(=O)[C@H](CCCNC(=N)N)NC(=O)[C@H](CCCNC(=N)N)NC(=O)[C@H]([C@@H](C)CC)NC1=O [compound 197] ({CH2CO}-AV[NMePhe(3-Cl)]V[Ala(imidazo(1,2-a)pyr3yl)]N[3Pal(6-NH2)]Y(Me)IIRR[4Pal][NMeY]CG[Lys(N3)]-NH2; thioether N-15) |  |  |  |  | Kd ([1]; SPR, pH 7.4, Table 1-3-2-2): 5.09 nM; Kd ([2]; SPR, pH 6.0, Table 1-3-2-2): 43.9 nM
2 | CC[C@H](C)[C@@H]1NC(=O)[C@H](Cc2ccc(OCC(=O)N3CCN(CC(=O)O)CC3)cc2)NC(=O)[C@H](Cc2ccc(O)cc2)NC(=O)[C@H](CC(N)=O)NC(=O)[C@H](Cc2c[nH]c3ccccc23)NC(=O)[C@H](C(C)C)NC(=O)[C@H](Cc2cccc(Cl)c2)N(C)C(=O)[C@H](C(C)C)NC(=O)[C@H](C)NC(=O)CSC[C@@H](C(=O)NCCOCCOCCOCCOCCC(N)=O)NC(=O)[C@H](Cc2ccc(O)cc2)N(C)C(=O)[C@H](Cc2cccc(C(=O)O)c2)NC(=O)[C@H](CCCCN2CCOCC2)NC(=O)[C@H](CCC(=O)NCCOCCOCCOCCOCCOCCOCCOCCOC)NC(=O)[C@H]([C@@H](C)CC)NC1=O [compound 31] ({CH2CO}-AV[NMePhe(3-Cl)]VWNYY(CH2CON(CH2CH2)2NCH2COOH)IIE(NH(CH2CH2O)8Me)[Nle(6-morpholino)][Phe(3-COOH)][NMeY]C[PEG4]-NH2; thioether N-15) | 2.43 | 17.1 |  |  | 
3 | CC[C@H](C)[C@@H]1NC(=O)[C@H](Cc2ccc(OCC(=O)NC[C@H](O)[C@@H](O)[C@H](O)[C@H](O)CO)cc2)NC(=O)[C@H](Cc2ccc(N)nc2)NC(=O)[C@H](CC(N)=O)NC(=O)[C@H](Cc2c[nH]c3ncccc23)NC(=O)[C@H](C(C)C)NC(=O)[C@H](Cc2cccc(Cl)c2)N(C)C(=O)[C@H](C(C)C)NC(=O)[C@H](C)NC(=O)CSC[C@@H](C(=O)NCCOCCOCCOCCOCCC(N)=O)NC(=O)[C@H](Cc2ccc(O)cc2)N(C)C(=O)[C@H](Cc2ccncc2)NC(=O)[C@H](CCCNC(=N)N)NC(=O)[C@H](CCC(=O)NC[C@H](O)[C@@H](O)[C@H](O)[C@H](O)CO)NC(=O)[C@H]([C@@H](C)CC)NC1=O [compound 12] | 7.12 | 137 |  |  | 
4 | CCC(CC)[C@@H]1NC(=O)[C@H](Cc2ccc(O)cc2)NC(=O)[C@H](Cc2ccc(N)nc2)NC(=O)[C@H](CC(N)=O)NC(=O)[C@H](Cc2c[nH]c3ccccc23)N(C)C(=O)[C@H](C(C)C)NC(=O)[C@H](Cc2ccccc2)N(C)C(=O)[C@H](C(C)C)NC(=O)[C@H](C)NC(=O)CSC[C@@H](C(=O)NCCOCCOCCOCCOCCC(N)=O)NC(=O)[C@H](Cc2ccc(O)cc2)N(C)C(=O)[C@H](Cc2ccc(O)cc2)NC(=O)[C@H](CCCNC(=N)N)NC(=O)[C@H](CCCCN)NC(=O)[C@H]([C@@H](C)CC)NC1=O [compound 133] ({CH2CO}-AV[NMeF]V[NMeW]N[3Pal(6-NH2)]Y[Nva(3-Et)]IKRY[NMeY]C[PEG4]-NH2; thioether N-15) |  |  | 16.5 | 20.2 | 
5 | CC[C@H](C)[C@@H]1NC(=O)[C@H](Cc2ccc(OC)cc2)NC(=O)[C@H](Cc2ccc(N)nc2)NC(=O)[C@H](CC(N)=O)NC(=O)[C@H](Cc2c[nH]c3ccccc23)N(C)C(=O)[C@H](C(C)C)NC(=O)[C@H](Cc2cccc(Cl)c2)N(C)C(=O)[C@H](C(C)C)NC(=O)[C@H](C)NC(=O)CSC[C@@H](C(=O)NCCOCCOCCOCCOCCC(N)=O)NC(=O)[C@H](Cc2ccc(O)cc2)N(C)C(=O)[C@H](Cc2ccncc2)NC(=O)[C@H](CCCNC(=N)N)NC(=O)[C@H](CCCCN)NC(=O)[C@H]([C@@H](C)CC)NC1=O [compound 58] ({CH2CO}-AV[NMePhe(3-Cl)]V[NMeW]N[3Pal(6-NH2)]Y(Me)IIKR[4Pal][NMeY]C[PEG4]-NH2; thioether N-15) | 1.34 | 5.39 |  |  | 
6 | CC[C@H](C)[C@@H]1NC(=O)[C@H](Cc2ccc(OCC(=O)O)cc2)NC(=O)[C@H](Cc2ccc(O)cc2)NC(=O)[C@H](CC(N)=O)NC(=O)[C@H](Cc2c[nH]c3ncccc23)NC(=O)[C@H](C(C)C)NC(=O)[C@H](Cc2cccc(Cl)c2)N(C)C(=O)[C@H](C(C)C)NC(=O)[C@H](C)NC(=O)CSC[C@@H](C(=O)NCCOCCOCCOCCOCCC(N)=O)NC(=O)[C@H](Cc2ccc(O)cc2)N(C)C(=O)[C@H](Cc2cccc(C(=O)NCCOCCOCCOCCOCCOCCOCCOCCOCCC(=O)O)c2)NC(=O)[C@H](CCCNC(=N)N)NC(=O)[C@H](CCC(N)=O)NC(=O)[C@H]([C@@H](C)CC)NC1=O [compound 140] |  |  | 5.63 | 22.1 | 
7 | CC[C@H](C)[C@@H]1NC(=O)[C@H](Cc2ccc(OCC(=O)O)cc2)NC(=O)[C@H](Cc2ccc(O)cc2)NC(=O)[C@H](CC(N)=O)NC(=O)[C@H](Cc2c[nH]c3ncccc23)NC(=O)[C@H](C(C)C)NC(=O)[C@H](Cc2cccc(Cl)c2)N(C)C(=O)[C@H](C(C)C)NC(=O)[C@H](C)NC(=O)CSC[C@@H](C(=O)NCCOCCOCCOCCOCCC(N)=O)NC(=O)[C@H](Cc2ccc(O)cc2)N(C)C(=O)[C@H](Cc2cccc(C(=O)NCCOCCOCCOCCOCCC(=O)O)c2)NC(=O)[C@H](CCCNC(=N)N)NC(=O)[C@H](CCC(N)=O)NC(=O)[C@H]([C@@H](C)CC)NC1=O [compound 144] |  |  | 3.56 | 17.4 | 
8 | CCC(CC)[C@@H]1NC(=O)[C@H](Cc2ccc(OCC(=O)O)cc2)NC(=O)[C@H](Cc2ccc(O)cc2)NC(=O)[C@H](CC(N)=O)NC(=O)[C@H](Cc2cnc3ccccn23)NC(=O)[C@H](C(C)C)NC(=O)[C@H](Cc2cccc(Cl)c2)N(C)C(=O)[C@H](C(C)C)NC(=O)[C@H](C)NC(=O)CSC[C@@H](C(=O)NCC(=O)N[C@@H](CCCCN=[N+]=[N-])C(N)=O)NC(=O)[C@H](Cc2ccc(O)cc2)N(C)C(=O)[C@H](Cc2cccc(C(=O)O)c2)NC(=O)[C@H](CCCNC(=N)N)NC(=O)[C@H](CCC(N)=O)NC(=O)[C@H]([C@@H](C)CC)NC1=O [compound 67] ({CH2CO}-AV[NMePhe(3-Cl)]V[Ala(imidazo(1,2-a)pyr3yl)]NYY(Carboxymethyl)[Nva(3-Et)]IQR[Phe(3-COOH)][NMeY]CG[Lys(N3)]-NH2; thioether N-15) | 21.6 | 444 |  |  | 
9 | CCC(CC)[C@@H]1NC(=O)[C@H](Cc2ccc(OC)cc2)NC(=O)[C@H](Cc2ccc(O)cc2)NC(=O)[C@H](CC(N)=O)NC(=O)[C@H](Cc2c[nH]c3ncccc23)NC(=O)[C@H](C(C)C)NC(=O)[C@H](Cc2cccc(Cl)c2)N(C)C(=O)[C@H](C(C)C)NC(=O)[C@H](C)NC(=O)CSC[C@@H](C(=O)NCCOCCOCCOCCOCCC(N)=O)NC(=O)[C@H](Cc2ccc(O)cc2)N(C)C(=O)[C@H](Cc2ccncc2)NC(=O)[C@H](CCCNC(=N)N)NC(=O)[C@H](CCCCN2CCOCC2)NC(=O)[C@H]([C@@H](C)CC)NC1=O [compound 54] ({CH2CO}-AV[NMePhe(3-Cl)]V[Trp(7-aza)]NYY(Me)[Nva(3-Et)]I[Nle(6-morpholino)]R[4Pal][NMeY]C[PEG4]-NH2; thioether N-15) | 1.38 | 9.2 |  |  | 
10 | CCC(CC)[C@@H]1NC(=O)[C@H](Cc2ccc(OCC(=O)O)cc2)NC(=O)[C@H](Cc2ccc(O)cc2)NC(=O)[C@H](CC(N)=O)NC(=O)[C@H](Cc2c[nH]c3ncccc23)NC(=O)[C@H](C(C)C)NC(=O)[C@H](Cc2cccc(Cl)c2)N(C)C(=O)[C@H](C(C)C)NC(=O)[C@H](C)NC(=O)CSC[C@@H](C(=O)NCCOCCOCCOCCOCCC(N)=O)NC(=O)[C@H](Cc2ccc(O)cc2)N(C)C(=O)[C@H](Cc2cccc(C(=O)O)c2)NC(=O)[C@H](CCCNC(=N)N)NC(=O)[C@H](CCC(=O)NCCOCCOCCOCCOCCOCCOCCOCCOC)NC(=O)[C@H]([C@@H](C)CC)NC1=O [compound 106] ({CH2CO}-AV[NMePhe(3-Cl)]V[Trp(7-aza)]NYY(Carboxymethyl)[Nva(3-Et)]IE(NH(CH2CH2O)8Me)R[Phe(3-COOH)][NMeY]C[PEG4]-NH2; thioether N-15) |  |  | 26 | 90.1 | 
11 | CC[C@H](C)[C@@H]1NC(=O)[C@H](Cc2ccc(OCC(=O)NC[C@H](O)[C@@H](O)[C@H](O)[C@H](O)CO)cc2)NC(=O)[C@H](Cc2ccc(O)cc2)NC(=O)[C@H](CC(N)=O)NC(=O)[C@H](Cc2c[nH]c3ncccc23)NC(=O)[C@H](C(C)C)NC(=O)[C@H](Cc2cccc(Cl)c2)N(C)C(=O)[C@H](C(C)C)NC(=O)[C@H](C)NC(=O)CSC[C@@H](C(=O)NCCOCCOCCOCCOCCC(N)=O)NC(=O)[C@H](Cc2ccc(O)cc2)N(C)C(=O)[C@H](Cc2ccncc2)NC(=O)[C@H](CCCCN2CCOCC2)NC(=O)[C@H](CCC(N)=O)NC(=O)[C@H]([C@@H](C)CC)NC1=O [compound 29] | 2.17 | 11.1 |  |  | 
12 | CC[C@H](C)[C@@H]1NC(=O)[C@H](Cc2ccc(OC)cc2)NC(=O)[C@H](Cc2ccc(N)nc2)NC(=O)[C@H](CC(N)=O)NC(=O)[C@H](Cc2c[nH]c3ncccc23)NC(=O)[C@H](C(C)C)NC(=O)[C@H](Cc2cccc(Cl)c2)N(C)C(=O)[C@H](C(C)C)NC(=O)[C@H](C)NC(=O)CSC[C@@H](C(=O)NCCOCCOCCOCCOCCC(N)=O)NC(=O)[C@H](Cc2ccc(O)cc2)N(C)C(=O)[C@H](Cc2ccncc2)NC(=O)[C@H](CCCCN2CCOCC2)NC(=O)[C@H](CCCCN2CCOCC2)NC(=O)[C@H]([C@@H](C)CC)NC1=O [compound 4] ({CH2CO}-AV[NMePhe(3-Cl)]V[Trp(7-aza)]N[3Pal(6-NH2)]Y(Me)II[Nle(6-morpholino)][Nle(6-morpholino)][4Pal][NMeY]C[PEG4]-NH2; thioether N-15) | 2.19 | 29.7 |  |  | 
